ChEMBL document CHEMBL1201862, “PubChem BioAssay data set” (2004)
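Briefly, cells in 96-well plates were exposed to five compound concentrations for 48 h, and endpoints were estimated by linear interpolation. Here, GI50 denotes the concentration required for 50% inhibition of growth.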 Activity calls are given as the source filed them. Cut-off read from the data, not from the text of the source: active = GI50 up to about 1.1 µM and inactive = higher.

Key:
Test in all cases: NCI anticancer screen, dose series, 48 h
TK-10 = tested on: TK-10
M14 = tested on: M14
SW-620 = tested on: SW-620
COLO 205 = tested on: COLO 205
NCI-H522 = tested on: NCI-H522
UACC-62 = tested on: UACC-62
NCI-H23 = tested on: NCI-H23
SN12C = tested on: SN12C
UACC-257 = tested on: UACC-257
786-0 = tested on: 786-0
HCT-116 = tested on: HCT-116
SF-539 = tested on: SF-539
A498 = tested on: A498
OVCAR-5 = tested on: OVCAR-5
NCI-H460 = tested on: NCI-H460
Hs-578T = tested on: Hs-578T
SF-295 = tested on: SF-295
RXF 393 = tested on: RXF 393
MDA-N = tested on: MDA-N
NCI/ADR-RES = tested on: NCI/ADR-RES
RPMI-8226 = tested on: RPMI-8226
K562 = tested on: K562
SK-MEL-5 = tested on: SK-MEL-5
HOP-92 = tested on: HOP-92
MDA-MB-231 = tested on: MDA-MB-231
HCC 2998 = tested on: HCC 2998
SR = tested on: SR
U-251 = tested on: U-251
BT-549 = tested on: BT-549
A549 = tested on: A549
MCF7 = tested on: MCF7
UO-31 = tested on: UO-31
SK-OV-3 = tested on: SK-OV-3
HL-60 = tested on: HL-60
LOX IMVI = tested on: LOX IMVI
IGROV-1 = tested on: IGROV-1
CCRF-CEM = tested on: CCRF-CEM
KM12 = tested on: KM12
EKVX = tested on: EKVX
PC-3 = tested on: PC-3
OVCAR-4 = tested on: OVCAR-4
HOP-62 = tested on: HOP-62
SK-MEL-28 = tested on: SK-MEL-28
ACHN = tested on: ACHN
Malme-3M = tested on: Malme-3M
DU-145 = tested on: DU-145
MOLT-4 = tested on: MOLT-4
OVCAR-3 = tested on: OVCAR-3
SK-MEL-2 = tested on: SK-MEL-2
CAKI-1 = tested on: CAKI-1
SNB-19 = tested on: SNB-19
HT-29 = tested on: HT-29
MDA-MB-435 = tested on: MDA-MB-435
SF-268 = tested on: SF-268
NCI-H226 = tested on: NCI-H226
HCT-15 = tested on: HCT-15
T47D = tested on: T47D
OVCAR-8 = tested on: OVCAR-8
SNB-75 = tested on: SNB-75

## C=C(Cl)C(=C)CCC(Cl)C(C)C (configuration not stated)
TK-10
  GI50: > 100 µM (inactive)
M14
  GI50: > 100 µM (inactive)
SW-620
  GI50: > 100 µM (inactive)
COLO 205
  GI50: > 100 µM (inactive)
NCI-H522
  GI50: > 100 µM (inactive)
UACC-62
  GI50: > 100 µM (inactive)
NCI-H23
  GI50: > 100 µM (inactive)
SN12C
  GI50: > 100 µM (inactive)
UACC-257
  GI50: > 100 µM (inactive)
786-0
  GI50: > 100 µM (inactive)
HCT-116
  GI50: > 100 µM (inactive)
SF-539
  GI50: > 100 µM (inactive)
A498
  GI50: > 100 µM (inactive)
OVCAR-5
  GI50: > 100 µM (inactive)
NCI-H460
  GI50: > 100 µM (inactive)
Hs-578T
  GI50: > 100 µM (inactive)
SF-295
  GI50: > 100 µM (inactive)
RXF 393
  GI50: > 100 µM (inactive)
MDA-N
  GI50: > 100 µM (inactive)
NCI/ADR-RES
  GI50: > 100 µM (inactive)
RPMI-8226
  GI50: > 100 µM (inactive)
K562
  GI50: > 100 µM (inactive)
SK-MEL-5
  GI50: > 100 µM (inactive)
HOP-92
  GI50: > 100 µM (inactive)
MDA-MB-231
  GI50: > 100 µM (inactive)
HCC 2998
  GI50: > 100 µM (inactive)
SR
  GI50: > 100 µM (inactive)
U-251
  GI50: > 100 µM (inactive)
BT-549
  GI50: > 100 µM (inactive)
A549
  GI50: > 100 µM (inactive)
MCF7
  GI50: > 100 µM (inactive)
UO-31
  GI50: > 100 µM (inactive)
SK-OV-3
  GI50: > 100 µM (inactive)
HL-60
  GI50: > 100 µM (inactive)
LOX IMVI
  GI50: > 100 µM (inactive)
IGROV-1
  GI50: > 100 µM (inactive)
CCRF-CEM
  GI50: > 100 µM (inactive)
KM12
  GI50: > 100 µM (inactive)
EKVX
  GI50: > 100 µM (inactive)
PC-3
  GI50: > 100 µM (inactive)
OVCAR-4
  GI50: > 100 µM (inactive)
HOP-62
  GI50: > 100 µM (inactive)
SK-MEL-28
  GI50: > 100 µM (inactive)
ACHN
  GI50: > 100 µM (inactive)
Malme-3M
  GI50: > 100 µM (inactive)
DU-145
  GI50: > 100 µM (inactive)
MOLT-4
  GI50: > 100 µM (inactive)
OVCAR-3
  GI50: > 100 µM (inactive)
SK-MEL-2
  GI50: > 100 µM (inactive)
CAKI-1
  GI50: > 100 µM (inactive)
SNB-19
  GI50: > 100 µM (inactive)
HT-29
  GI50: > 100 µM (inactive)
MDA-MB-435
  GI50: > 100 µM (inactive)
SF-268
  GI50: > 100 µM (inactive)
NCI-H226
  GI50: > 100 µM (inactive)

## Nc1c(C(=O)c2ccc(Cl)cc2)[nH]c(Nc2ccc(Cl)cc2)c1C(=S)Nc1ccccc1
TK-10
  GI50: 5.4 µM (inactive)
M14
  GI50: 11.9 µM (inactive)
HCT-15
  GI50: 4.01 µM
SW-620
  GI50: 6.43 µM (inactive)
COLO 205
  GI50: 4.13 µM (inactive)
NCI-H522
  GI50: 4.83 µM (inactive)
UACC-62
  GI50: 13.4 µM (inactive)
T47D
  GI50: 4.11 µM (inactive)
NCI-H23
  GI50: 3.3 µM (inactive)
SN12C
  GI50: 7.71 µM (inactive)
UACC-257
  GI50: 11.2 µM (inactive)
786-0
  GI50: 2.9 µM (inactive)
HCT-116
  GI50: 3.7 µM (inactive)
SF-539
  GI50: 5.41 µM (inactive)
A498
  GI50: 12.7 µM (inactive)
OVCAR-8
  GI50: 3.12 µM (inactive)
OVCAR-5
  GI50: 11.8 µM (inactive)
SNB-75
  GI50: 3 µM (inactive)
NCI-H460
  GI50: 6.58 µM (inactive)
SF-295
  GI50: 2.38 µM (inactive)
RXF 393
  GI50: 2.7 µM (inactive)
MDA-N
  GI50: 6.76 µM (inactive)
NCI/ADR-RES
  GI50: 2.53 µM (inactive)
RPMI-8226
  GI50: 14.5 µM (inactive)
K562
  GI50: 3.29 µM (inactive)
HOP-92
  GI50: 5.21 µM (inactive)
MDA-MB-231
  GI50: 4.55 µM (inactive)
HCC 2998
  GI50: 2.74 µM (inactive)
SR
  GI50: 1.92 µM (inactive)
U-251
  GI50: 2.97 µM (inactive)
BT-549
  GI50: 2.93 µM (inactive)
A549
  GI50: 3.21 µM (inactive)
MCF7
  GI50: 4.41 µM (inactive)
UO-31
  GI50: 3.73 µM (inactive)
SK-OV-3
  GI50: 6.52 µM (inactive)
HL-60
  GI50: 49.5 µM (inactive)
LOX IMVI
  GI50: 3.64 µM (inactive)
IGROV-1
  GI50: 4.15 µM (inactive)
CCRF-CEM
  GI50: 6.27 µM (inactive)
KM12
  GI50: 7.6 µM (inactive)
EKVX
  GI50: 4.9 µM (inactive)
PC-3
  GI50: 10.6 µM (inactive)
OVCAR-4
  GI50: 2.08 µM (inactive)
HOP-62
  GI50: 5.65 µM (inactive)
SK-MEL-28
  GI50: 4.27 µM (inactive)
ACHN
  GI50: 2.21 µM (inactive)
Malme-3M
  GI50: 8.34 µM (inactive)
DU-145
  GI50: 5.41 µM (inactive)
MOLT-4
  GI50: 9.44 µM (inactive)
OVCAR-3
  GI50: 3.19 µM (inactive)
SK-MEL-2
  GI50: 11.7 µM (inactive)
CAKI-1
  GI50: 6.05 µM (inactive)
SNB-19
  GI50: 4.36 µM (inactive)
HT-29
  GI50: 4.99 µM (inactive)
MDA-MB-435
  GI50: 7.14 µM (inactive)
SF-268
  GI50: 4.22 µM (inactive)
NCI-H226
  GI50: 3.64 µM (inactive)
